For assay [1], the target named is human CYP11B2 (Homo sapiens (Human), UniProt P19099). Description: G-402 cellular enzyme assay, human CYP11B2 (aldosterone release, HTRF). In kind it is cell-based. To be noted: G-402 cells expressing human CYP11B2; 1 μM Deoxycorticosterone. The text has this:
(§1) Specifically we developed stable G-402 cells expressing ectopically human CYP11B1, human CYP11B2, human CYP11A1, cynomolgus CYP11B1 or cynomolgus CYP11B2 enzyme activity.
(§2) The expression plasmids contains the ORF for either human/cyno CYP11B1 or CYP11B2 under the control of a suitable promoter (CMV-promoter) and a suitable resistance marker (neomycin). Using standard techniques the expression plasmid is transfected into G-402 cells and these cells are then selected for expressing the given resistance markers. Individual cell-clones are then selected and assessed for displaying the desired enzymatic activity using 11-Deoxycorticosterone (Cyp11B2) or 11-Deoxycortisol (Cyp11B1) as a substrate.
(§3) For assaying enzymatic activity, cells were plated onto 96 well plates and incubated for 16 h. An aliquot of the supernatant is then transferred and analyzed for the concentration of the expected product (Aldosterone for CYP11B2; Cortisol for CYP11B1). The concentrations of these steroids can be determined using HTRF assays from CisBio analyzing either Aldosterone or Cortisol.
(§4) Inhibition of the release of produced steroids can be used as a measure of the respective enzyme inhibition by test compounds added during the cellular enzyme assay. The dose dependent inhibition of enzymatic activity by a compound is calculated by means of plotting added inhibitor concentrations x-axes) vs. measured steroid/product level (y-axes). The inhibition is then calculated by fitting the following 4-parameter sigmoidal function (Morgan-Mercer-Flodin (MMF) model) to the raw data points using the least squares method:
(§5) [formula] wherein, A is the maximum y value, B is the EC50 factor determined using XLFit, C is the minimum y value and D is the slope value.
(§6) EC50 values for compounds claimed herein were tested with the G402-based assay system described. Cyp11B2 enzyme activity was tested in presence of 1 μM Deoxycorticosterone and variable amounts of inhibitors; Cyp11B1 enzyme activity was tested in presence of 1 μM Deoxycortisol and variable amounts of inhibitors.
In general terms: Time-resolved FRET reads energy transfer from a long-lived donor to a nearby acceptor.

The target in assay [2] is human CYP11B1 (Homo sapiens (Human), UniProt P15538). Put plainly: G-402 cellular enzyme assay, human CYP11B1 (cortisol release, HTRF). Conditions: G-402 cells expressing human CYP11B1; 1 μM Deoxycortisol. In kind it is cell-based.
Text: as §1, §2, §3, §4, §5, §6

Sequence of human CYP11B1 (P15538 25-503): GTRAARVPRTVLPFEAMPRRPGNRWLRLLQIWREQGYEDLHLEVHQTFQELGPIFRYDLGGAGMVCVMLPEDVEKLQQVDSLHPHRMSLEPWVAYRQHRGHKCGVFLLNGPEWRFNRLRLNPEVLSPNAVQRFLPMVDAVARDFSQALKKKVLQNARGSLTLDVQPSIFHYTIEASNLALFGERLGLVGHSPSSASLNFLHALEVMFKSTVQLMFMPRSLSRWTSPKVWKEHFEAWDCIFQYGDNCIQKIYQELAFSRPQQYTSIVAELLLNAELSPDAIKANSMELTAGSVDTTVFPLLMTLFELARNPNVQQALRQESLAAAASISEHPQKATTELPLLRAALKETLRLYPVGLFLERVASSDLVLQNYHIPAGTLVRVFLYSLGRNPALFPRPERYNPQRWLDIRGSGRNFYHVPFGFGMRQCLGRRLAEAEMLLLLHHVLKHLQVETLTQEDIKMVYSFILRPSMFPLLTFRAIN
Sequence of human CYP11B2 (P19099 25-503): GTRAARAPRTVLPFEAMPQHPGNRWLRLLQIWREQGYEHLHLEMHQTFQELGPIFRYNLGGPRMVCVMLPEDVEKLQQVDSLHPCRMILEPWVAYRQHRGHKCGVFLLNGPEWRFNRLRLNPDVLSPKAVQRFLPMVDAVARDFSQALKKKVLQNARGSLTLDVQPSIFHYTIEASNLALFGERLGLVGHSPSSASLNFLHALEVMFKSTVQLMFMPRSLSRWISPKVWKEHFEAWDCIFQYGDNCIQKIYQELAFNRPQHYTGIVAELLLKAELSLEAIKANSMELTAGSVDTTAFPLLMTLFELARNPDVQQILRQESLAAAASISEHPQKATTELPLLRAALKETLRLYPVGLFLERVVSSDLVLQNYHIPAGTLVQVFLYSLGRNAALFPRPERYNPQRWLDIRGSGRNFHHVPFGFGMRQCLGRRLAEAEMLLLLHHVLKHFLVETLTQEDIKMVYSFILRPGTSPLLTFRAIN

On to `CCC(=O)N[C@@H]1c2cncc(-c3ccc4c(c3)CCC(=O)N4C)c2CC[C@@H]1C` (single isomer, unassigned) [Example 46, (−)-N-[(7S,8S or 7R,8R)-7-Methyl-4-(1-methyl-2-oxo-1,2,3,4-tetrahydro-quinolin-6-yl)-5,6,7,8-tetrahydro-isoquinolin-8-yl]-propionamide], for which the EC50 in assay [1] came out at 467 nM; in assay [2], 19300 nM.

On to `CCC(=O)N[C@H]1c2cncc(-c3cc4c(cc3F)N(C)C(=O)CC4)c2CC[C@H]1C` (single isomer, unassigned) [Example 48, (+)-N-[(7R,8R or 7S,8S)-4-(7-Fluoro-1-methyl-2-oxo-1,2,3,4-tetrahydro-quinolin-6-yl)-7-methyl-5,6,7,8-tetrahydro-isoquinolin-8-yl]-propionamide], for which the EC50 was 26.1 nM in assay [1] and 2880 nM in assay [2].

Regarding `CCC(=O)N[C@H]1c2cncc(-c3ccc4c(c3)CCC(=O)N4C)c2CC[C@H]1C` (single isomer, unassigned) [Example 49, (+)-N-[(7R,8R or 7S,8S)-7-Methyl-4-(1-methyl-2-oxo-1,2,3,4-tetrahydro-quinolin-6-yl)-5,6,7,8-tetrahydro-isoquinolin-8-yl]-propionamide], the EC50 in assay [1] was determined as 44.2 nM; in assay [2], 3950 nM.

In the case of `CCC(=O)N[C@@H]1c2cncc(-c3ccc4c(c3)CCC(=O)N4C)c2CC[C@@H]1F` (single isomer, unassigned) [Example 51, (−)-N-[(7S,8R or 7R,8S)-7-Fluoro-4-(1-methyl-2-oxo-1,2,3,4-tetrahydro-quinolin-6-yl)-5,6,7,8-tetrahydro-isoquinolin-8-yl]-propionamide], the EC50 in assay [1] worked out at 1470 nM; in assay [2], 32300 nM.

For the compound `CCC(=O)N[C@H]1c2cncc(-c3ccc4c(c3)CCC(=O)N4C)c2CC[C@@H]1F` (single isomer, unassigned) [Example 52, (+)-N-[(7S,8S or 7R,8R)-7-Fluoro-4-(1-methyl-2-oxo-1,2,3,4-tetrahydro-quinolin-6-yl)-5,6,7,8-tetrahydro-isoquinolin-8-yl]-propionamide], the EC50 in assay [1] turned out to be 25.8 nM; in assay [2], 1590 nM.

For the compound `CCC(=O)N[C@H]1c2cncc(-c3ccc4c(c3)CCC(=O)N4C)c2CC[C@H]1F` (single isomer, unassigned) [Example 53, (+)-N-[(7R,8S or 7S,8R)-7-Fluoro-4-(1-methyl-2-oxo-1,2,3,4-tetrahydro-quinolin-6-yl)-5,6,7,8-tetrahydro-isoquinolin-8-yl]-propionamide], the values for the EC50 in assay [1] and in assay [2] were 122 nM and 3570 nM, respectively.

On to `CCC(=O)N[C@H]1c2cncc(-c3cc4c(cc3F)N(C)C(=O)CC4)c2CC[C@@H]1F` (single isomer, unassigned) [Example 54, (+)-N-[(7S,8S or 7R,8R)-7-Fluoro-4-(7-fluoro-1-methyl-2-oxo-1,2,3,4-tetrahydro-quinolin-6-yl)-5,6,7,8-tetrahydro-isoquinolin-8-yl]-propionamide], for which the results for the EC50 in assay [1] and in assay [2] were 38.8 nM and 2390 nM, respectively.

Turning to `CCC(=O)N[C@H]1c2cncc(-c3cc4c(cc3F)N(C)C(=O)CC4)c2CC[C@H]1F` (single isomer, unassigned) [Example 55, (+)-N-[(7R,8S or 7S,8R)-7-Fluoro-4-(7-fluoro-1-methyl-2-oxo-1,2,3,4-tetrahydro-quinolin-6-yl)-5,6,7,8-tetrahydro-isoquinolin-8-yl]-propionamide], the EC50 came out at 158 nM in assay [1] and 2760 nM in assay [2].

Regarding `CCC(=O)N[C@@H]1c2cncc(-c3cc4c(cc3F)N(C)C(=O)CC4)c2CC[C@H]1F` (single isomer, unassigned) [Example 56, (−)-N-[(7R,8R or 7S,8S)-7-Fluoro-4-(7-fluoro-1-methyl-2-oxo-1,2,3,4-tetrahydro-quinolin-6-yl)-5,6,7,8-tetrahydro-isoquinolin-8-yl]-propionamide], the values for the EC50 in assay [1] and in assay [2] were 2780 nM and 14900 nM, respectively.

Take `CCC(=O)N[C@@H]1c2cncc(-c3cc4c(cc3F)N(C)C(=O)CC4)c2CC[C@@H]1F` (single isomer, unassigned) [Example 57, (−)-N-[(7S,8R or 7R,8S)-7-Fluoro-4-(7-fluoro-1-methyl-2-oxo-1,2,3,4-tetrahydro-quinolin-6-yl)-5,6,7,8-tetrahydro-isoquinolin-8-yl]-propionamide]: the EC50 in assay [1] stood at 884 nM; in assay [2] it was 20300 nM.

In the case of `CN1C(=O)CCc2cc(-c3cncc4c3CCCC4O)ccc21` (single isomer, unassigned) [Example 68, (S or R)-6-(8-Hydroxy-5,6,7,8-tetrahydro-isoquinolin-4-yl)-1-methyl-3,4-dihydroquinolin-2(1H)-one], the EC50 in assay [1] is 77.4 nM; in assay [2], 1620 nM.

In the case of `CN1C(=O)CCc2cc(-c3cncc4c3CCCC4O)ccc21` (single isomer, unassigned) [Example 69, (R or S)-6-(8-Hydroxy-5,6,7,8-tetrahydro-isoquinolin-4-yl)-1-methyl-3,4-dihydroquinolin-2(1H)-one], the results for the EC50 in assay [1] and in assay [2] were 2 nM and 54.1 nM, respectively.

In the case of `CCC(=O)NC1CCCc2c(-c3ccc4c(c3)CCC(=O)N4C)cncc21` (single isomer, unassigned; (+)) [Example 3, (+)-(S or R)—N-(4-(1-Methyl-2-oxo-1,2,3,4-tetrahydroquinolin-6-yl)-5,6,7,8-tetrahydroisoquinolin-8-yl)propionamide], the EC50 worked out at 14 nM in assay [1] and 980 nM in assay [2].

In the case of `CCS(=O)(=O)NC1CCCc2c(-c3ccc4c(c3)CCC(=O)N4C)cncc21` (single isomer, unassigned; (+)) [Example 6, (+)-(S or R)—N-(4-(1-Methyl-2-oxo-1,2,3,4-tetrahydroquinolin-6-yl)-5,6,7,8-tetrahydroisoquinolin-8-yl)ethanesulfonamide], the EC50 in assay [1] is 48 nM; in assay [2], 1750 nM.

Turning to `CCC(=O)NC1CCc2c(-c3ccc4c(c3)CCC(=O)N4C)cncc21` (single isomer, unassigned; (+)) [Example 9, (+)-(S or R)—N-(4-(1-Methyl-2-oxo-1,2,3,4-tetrahydroquinolin-6-yl)-6,7-dihydro-5H-cyclopenta[c]pyridin-7-yl)propionamide], the figures for the EC50 in assay [1] and in assay [2] were 13 nM and 570 nM, respectively.

Regarding `C[C@@H](O)C(=O)NC1CCCc2c(-c3ccc4c(c3)CCC(=O)N4C)cncc21` (single isomer, unassigned; (+)) [Example 18, (+)-(2R)-2-Hydroxy-N-((4R or 4S)-4-(1-methyl-2-oxo-1,2,3,4-tetrahydroquinolin-6-yl)-5,6,7,8-tetrahydroisoquinolin-8-yl)propanamide], the EC50 was determined as 27.9 nM in assay [1] and 1490 nM in assay [2].

In the case of `C[C@H](O)C(=O)NC1CCCc2c(-c3ccc4c(c3)CCC(=O)N4C)cncc21` (single isomer, unassigned; (+)) [Example 21, (+)-(2S)-2-hydroxy-N-((4R or 4S)-4-(1-methyl-2-oxo-1,2,3,4-tetrahydroquinolin-6-yl)-5,6,7,8-tetrahydroisoquinolin-8-yl)propanamide], the EC50 amounted to 28 nM in assay [1] and 598 nM in assay [2].

For orientation: EC50 means the concentration giving half of the maximal effect.

The values above are taken from patent US9353081B2, “Bicyclic dihydroquinoline-2-one derivatives” (Hoffmann-La Roche Inc., priority 2011, dated 2016).
